Source: patent publication US8143293B2, “Kinase inhibitors useful for the treatment of myleoprolific diseases and other proliferative diseases” (Deciphera Pharmaceuticals, LLC, priority 2007, dated 2012)
Where a chain is given by its changes, count along the chain named.

Experiments:
[1] = molecular target: T1, Abl kinase (SEQ ID NO: 1) (Homo sapiens, UniProt P00519); test: Abl kinase (SEQ ID NO:1) assay, pyruvate kinase/lactate dehydrogenase coupled; conditions: 2 h preincubation, ATP 500 μM; read-out: Biochemical IC50, Abl Enzyme Assay
T1 construct: purchased deCode Genetics
T1 sequence (P00519 with tags, fused parts or gaps): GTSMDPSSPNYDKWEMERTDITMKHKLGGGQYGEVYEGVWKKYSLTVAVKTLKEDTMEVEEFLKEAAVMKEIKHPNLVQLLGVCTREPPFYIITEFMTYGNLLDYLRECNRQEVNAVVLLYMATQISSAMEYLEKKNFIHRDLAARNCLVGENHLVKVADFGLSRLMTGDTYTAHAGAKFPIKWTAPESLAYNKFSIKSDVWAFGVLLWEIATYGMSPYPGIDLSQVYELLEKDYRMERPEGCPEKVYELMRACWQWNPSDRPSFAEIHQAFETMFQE
Procedure, shortened: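 ADP formation was coupled to pyruvate kinase/lactate dehydrogenase, and NADH loss at 340 nm was followed continuously. Compounds were preincubated 2 h at 30° C before 500 μM ATP, and rates from 1.0–2.0 h gave % inhibition and IC50.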

[2] = molecular target: T2, T315I Abl kinase (SEQ ID NO:2) (Homo sapiens, UniProt P00519, T315I); test: T315I Abl kinase (SEQ ID NO:2) assay, pyruvate kinase/lactate dehydrogenase coupled; conditions: 1 h preincubation, ATP 500 μM; read-out: Biochemical IC50, Abl T315I Enzyme Assay
T2 construct: purchased deCode Genetics
T2 sequence (P00519 with tags, fused parts or gaps T315I): T1 sequence (P00519 with tags, fused parts or gaps) with T94I
Experimental: Abl Kinase (SEQ ID NO:2) Assay
Activity of T315I Abl kinase (SEQ ID NO:2) was determined by following the production of ADP from the kinase reaction through coupling with the pyruvate kinase/lactate dehydrogenase system (e.g., Schindler, et al. Science (2000) 289, 1938-1942). In this assay, the oxidation of NADH (thus the decrease at A340 nm) was continuously monitored spectrophometrically. The reaction mixture (100 μl) contained Abl kinase (4.4 nM, […] Abl from deCode Genetics), peptide substrate (EAIYAAPFAKKK, 0.2 mM), MgCl2 (10 mM), pyruvate kinase (4 units), lactate dehydrogenase (0.7 units), phosphoenol pyruvate (1 mM), and NADH (0.28 mM) in 90 mM Tris buffer containing 0.2% octyl-glucoside and 1% DMSO, pH 7.5. Test compounds were incubated with T315I Abl (SEQ ID NO:2) and other reaction reagents at 30° C. for 1 h before ATP (500 μM) was added to start the reaction. The absorption at 340 nm was monitored continuously for 2 hours at 30° C. on Polarstar Optima plate reader (BMG). The reaction rate was calculated using the 1.0 to 2.0 h time frame. Percent inhibition was obtained by comparison of reaction rate with that of a control (i.e. with no test compound). IC50 values were calculated from a series of percent inhibition values determined at a range of inhibitor concentrations using software routines as implemented in the GraphPad Prism software package.

[3] = molecular target: T3, BaF3 cells transfected with T315I p210 BCR-Abl (Homo sapiens, UniProt P00519, T315I, cells depend on it); test: Ba/F3 p210 T315I whole cell proliferation assay; assay type: cell-based; conditions: 72 hours, Cell Titer Blue; read-out: Whole Cell Antiproliferation IC50, Ba/F3 p210 T315I whole cell proliferation assay
T3 construct: fused on or other part: P11274 (Breakpoint cluster region protein)

Row | Molecule | IC50 [1] | IC50 [2] | GI50 [3]
1 | Cn1cc(-c2cc(Oc3ccc(NC(=O)Nc4nnc(C(C)(C)C)s4)c(F)c3)ccn2)cn1 [Example 11, 1-(5-tert-butyl-1,3,4-thiadiazol-2-yl)-3-(2-fluoro-4-(2-(1-methyl-1H-pyrazol-4-yl)pyridin-4-yloxy)phenyl)urea] | < 0.1 µM | < 0.1 µM | < 0.1 µM
2 | CN(C)CCn1nc(C(C)(C)C)cc1NC(=O)Nc1ccc(Oc2ccnc(-c3cnn(C)c3)c2)cc1F [Example 12, 1-(3-tert-butyl-1-(2-(dimethylamino)ethyl)-11H-pyrazol-5-yl)-3-(2-fluoro-4-(2-(1-methyl-1H-pyrazol-4-yl)pyridin-4-yloxy)phenyl)urea] | < 0.1 µM | < 0.1 µM | < 0.1 µM
3 | Cn1cc(-c2cc(Oc3ccc(NC(=O)Nc4cnn(C5CCCC5)c4)c(F)c3)ccn2)cn1 [Example 15, 1-(1-cyclopentyl-1H-pyrazol-4-yl)-3-(2-fluoro-4-(2-(1-methyl-1H-pyrazol-4-yl)pyridin-4-yloxy)phenyl)urea] | < 0.1 µM | < 0.1 µM | < 0.1 µM
4 | Cn1cc(-c2cc(Oc3ccc(NC(=O)Nc4cncc(C(F)(F)F)c4)c(F)c3)ccn2)cn1 [Example 21, 1-(2-fluoro-4-(2-(1-methyl-1H-pyrazol-4-yl)pyridin-4-yloxy)phenyl)-3-(5-(trifluoromethyl)pyridin-3-yl)urea] | < 0.1 µM | < 0.1 µM | < 0.1 µM
5 | CC(C)c1cncc(NC(=O)Nc2ccc(Oc3ccnc(-c4cnn(C)c4)c3)cc2F)c1 [Example 22, 1-(2-fluoro-4-(2-(1-methyl-1H-pyrazol-4-yl)pyridin-4-yloxy)phenyl)-3-(5-isopropylpyridin-3-yl)urea] | < 0.1 µM | < 0.1 µM | < 0.1 µM
6 | Cn1cc(-c2cc(Oc3ccc(NC(=O)Nc4cc(C(C)(C)C)no4)c(F)c3F)ccn2)cn1 [Example 25, 1-(3-tert-butylisoxazol-5-yl)-3-(2,3-difluoro-4-(2-(1-methyl-1H-pyrazol-4-yl)pyridin-4-yloxy)phenyl)urea] | < 0.1 µM | < 0.1 µM | < 0.1 µM
7 | Cn1cc(-c2cc(Oc3ccc(NC(=O)Nc4cc(C(F)(F)F)c[nH]c4=O)c(F)c3)ccn2)cn1 [Example 27, 1-(2-fluoro-4-(2-(1-methyl-1H-pyrazol-4-yl)pyridin-4-yloxy)phenyl)-3-(2-oxo-5-(trifluoromethyl)-1,2-dihydropyridin-3-yl)urea] | < 0.1 µM | < 0.1 µM | < 0.1 µM
8 | Cc1oc(C(C)(C)C)cc1NC(=O)Nc1ccc(Oc2ccnc(-c3cnn(C)c3)c2)cc1F [Example 28, 1-(5-tert-butyl-2-methylfuran-3-yl)-3-(2-fluoro-4-(2-(1-methyl-1H-pyrazol-4-yl)pyridin-4-yloxy)phenyl)urea] | < 0.1 µM | < 0.1 µM | < 1 µM
9 | Cn1cc(-c2cc(Oc3ccc(NC(=O)Nc4cnc(C(C)(C)C)nc4N4CCOCC4)c(F)c3)ccn2)cn1 [Example 41, 1-(2-tert-butyl-4-morpholinopyrimidin-5-yl)-3-(2-fluoro-4-(2-(1-methyl-1H-pyrazol-4-yl)pyridin-4-yloxy)phenyl)urea] | < 1 µM | < 100 µM | < 1 µM
10 | Cn1cc(-c2cc(Oc3ccc(NC(=O)Nc4cc(C(F)(F)F)cnc4-c4cnn(C)c4)c(F)c3)ccn2)cn1 [Example 42, 1-(2-fluoro-4-(2-(1-methyl-1H-pyrazol-4-yl)pyridin-4-yloxy)phenyl)-3-(2-(1-methyl-1H-pyrazol-4-yl)-5-(trifluoromethyl)pyridin-3-yl)urea] | < 0.1 µM | < 0.1 µM | < 0.1 µM

Next, values leading:

Row | IC50 [1] | IC50 [2] | GI50 [3] | Molecule
11 | < 0.1 µM | < 0.1 µM | < 0.1 µM | 1-(2-fluoro-4-(2-(1-methyl-1H-pyrazol-4-yl)pyridin-4-yloxy)phenyl)-3-(3-(1-methylcyclopentyl)isoxazol-5-yl)urea [Example 14]
12 | < 0.1 µM | < 0.1 µM | < 0.1 µM | Cn1cc(-c2cc(Oc3ccc(NC(=O)Nc4cc(C(C)(C)C)no4)c(F)c3)ccn2)cn1 [Example 1, 1-(3-t-butylisoxazol-5-yl)-3-(2-fluoro-4-(2-(1-methyl-1H-pyrazol-4-yl)pyridin-4-yloxy)phenyl)urea]
13 | < 0.1 µM | < 0.1 µM | < 0.1 µM | Cn1cc(-c2cc(Oc3ccc(NC(=O)Nc4cc(C(C)(C)C)nn4C)c(F)c3)ccn2)cn1 [Example 2, 1-(3-t-butyl-1-methyl-1H-pyrazol-5-yl)-3-(2-fluoro-4-(2-(1-methyl-1H-pyrazol-4-yl)pyridin-4-yloxy)phenyl)urea]
14 | < 0.1 µM | < 0.1 µM | < 0.1 µM | Cn1cc(-c2cc(Oc3ccc(NC(=O)Nc4cccc(C(F)(F)F)c4)c(F)c3)ccn2)cn1 [Example 3, 1-(2-fluoro-4-(2-(1-methyl-1H-pyrazol-4-yl)pyridin-4-yloxy)phenyl)-3-(3-(trifluoromethyl)phenyl)urea]
15 | < 0.1 µM | < 0.1 µM | < 0.1 µM | Cn1cc(-c2cc(Oc3ccc(NC(=O)Nc4cnn(C(C)(C)C)c4)c(F)c3)ccn2)cn1 [Example 5, 1-(1-t-butyl-1H-pyrazol-4-yl)-3-(2-fluoro-4-(2-(1-methyl-1H-pyrazol-4-yl)pyridin-4-yloxy)phenyl)urea]
16 | < 0.1 µM | < 0.1 µM | < 0.1 µM | Cn1cc(-c2cc(Oc3ccc(NC(=O)Nc4cncc(C(F)(F)F)c4)cc3)ccn2)cn1 [Example 6, 1-(4-(2-(1-methyl-1H-pyrazol-4-yl)pyridin-4-yloxy)phenyl)-3-(5-(trifluoromethyl)pyridin-3-yl)urea]
17 | < 0.1 µM | < 0.1 µM | < 0.1 µM | Cn1cc(-c2cc(Oc3ccc(NC(=O)Nc4cnn(C(C)(C)C)c4)c(F)c3F)ccn2)cn1 [Example 8, 1-(1-tert-butyl-1H-pyrazol-4-yl)-3-(2,3-difluoro-4-(2-(1-methyl-1H-pyrazol-4-yl)pyridin-4-yloxy)phenyl)urea]
18 | < 0.1 µM | < 100 µM | < 1 µM | Cn1cc(-c2cc(Oc3ccc(NC(=O)Nc4cnn(C(C)(C)C)c4C(F)(F)F)c(F)c3)ccn2)cn1 [Example 9, 1-(1-tert-butyl-5-(trifluoromethyl)-1H-pyrazol-4-yl)-3-(2-fluoro-4-(2-(1-methyl-1H-pyrazol-4-yl)pyridin-4-yloxy)phenyl)urea]
19 | < 0.1 µM | < 10 µM | < 1 µM | Cc1c(NC(=O)Nc2ccc(Oc3ccnc(-c4cnn(C)c4)c3)cc2F)cnn1C(C)(C)C [Example 10, 1-(1-tert-butyl-5-methyl-1H-pyrazol-4-yl)-3-(2-fluoro-4-(2-(1-methyl-1H-pyrazol-4-yl)pyridin-4-yloxy)phenyl)urea]
